Data reported in patent publication US20150299125A1, “PRODRUG BIPYRIDYLAMINOPYRIDINES AS SYK INHIBITORS” (MERCK SHARP & DOHME CORP., priority 2012, published 2015).
≈ marks a conversion by molar mass, not a printed value. Where two headings read alike, the source gives them in different places.

Key:
[1] = biological target: T1, recombinant human GST-Syk (Homo sapiens, UniProt P43405); experiment: Homogeneous Time-Resolved Fluorescence (HTRF) assay for the recombinant human Syk enzyme; assay type: biochemical; conditions: ATP 25 μM
T1 construct: purchased Carna Biosciences 08-176
Summary of the method: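 Recombinant GST-hSyk phosphorylates a biotinylated peptide for 45 min at room temperature. Quenched with EDTA buffer containing 2 nM Eu-anti-phosphotyrosine antibody and 70 nM SA-APC; HTRF read after 30 min.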

[2] = Conversion of prodrug to parent in in vitro biorelevant gastrointestinal tract media; assay type: in vitro ADME; conditions: 37° C.
Protocol: Conversion of Prodrug to Parent in In Vitro Biorelevant Gastrointestinal Tract Media: The likely stability of prodrugs in the gastrointestinal tract can be estimated by incubating a prodrug in simulated gastric and intestinal fluids; compounds were measured for stability in simulated gastric fluid (SGF), fasted state simulated intestinal fluid (FaSSIF), and fasted state simulated intestinal fluid plus pancreatin (FaSSIF+pancreatin). Prodrug stock solutions were made by diluting 2 mg of compound in 200 μL DMSO. A 10 mg/mL Pancreatin in FaSSIF stock solution was made by dissolving 10 mg Pancreatin in 1 mL FaSSIF. Samples were prepared by diluting 10 μL of compound stock solution into 990 μL of biorelevant media (990 μL SGF, 990 μL FaSSIF, or 940 μL FaSSIF plus 50 μL Pancreatin stock) in a 2 mL HPLC vial and vortexing the mixture for a few seconds. The samples were incubated at 37° C. and aliquots were removed for up to 24 hours and injected directly on an HPLC to determine the conversion of prodrug to active drug. In the case of compound precipitation upon sample preparation, an individual sample was prepared for each desired time point and the entire sample was diluted with a known volume of acetonitrile/water (50/50) to ensure compound dissolution before HPLC analysis.

[3] = Solubility in biorelevant fasted state simulated intestinal fluid (FaSSIF); assay type: physicochemical; conditions: 25 °C, fassif, kinetic from dmso stock, Solubility
Protocol: Solubility in Biorelevant Fasted State Simulated Intestinal Fluid (FaSSIF):
A 10 mM DMSO stock solution of compound to be tested is used. A 100 μM standard solution is generated by diluting 2.5 μL of the 10 mM stock solution with 247.5 μL of diluent (10% DMSO/10% MeCN/80% MeOH, v/v/v). A solubility solution is generated by diluting 5 μL of the 10 mM stock solution with 245 μL of FaSSIF (maximum solubility approximately 200 μM). […] The equilibrated solubility solution is filtered by centrifugation (3 minutes at 4000 rpm) using a 0.45 µm filter with a polypropylene membrane. The standard solution and the filtered equilibrated solubility solution are analyzed by HPLC/DAD. The solubility value is calculated by the following equation:
Solubility=(Peak area of sample/Peak area of standard)(Standard concentration)

[4] = recombinant human GST-Syk 5 pM, read-out: IC50

Row | IC50 [1, 4] | Conversion in FaSSIF + Pancreatin, time ([2]; FaSSIF + pancreatin, 24 h) | Conversion in FaSSIF, time ([2]; FaSSIF, 5 h) | Conversion in SGF, time ([2]; simulated gastric fluid, 5 h) | solubility [3] | SMILES | IC50 ([1]; IC50, recombinant human GST-Syk 5 pM)
1 | 7.3 nM | 44%, 24 h | 0%, 5 h | 0%, 5 h |  | Cc1cc(Nc2cc(C(F)F)ccn2)nc(-c2ccc([C@](C)(O)[C@H]3CC[C@H](C(=O)Oc4ccc(C#N)cc4)CC3)nc2)c1 [Example 1-29, 4-cyanophenyl trans-4-[(1R)-1-(6-{[4-(difluoromethyl)pyridin-2-yl]amino}-4-methyl-2,3′-bipyridin-6′-yl)-1-hydroxyethyl] cyclohexanecarboxylate] | 
2 | 1 nM |  |  |  | 137 µM | CCC[N+](CCC)(CCC)COC(=O)[C@H]1CC[C@H]([C@@](C)(O)c2ccc(-c3cc(C)cc(Nc4cc(C(F)F)ccn4)n3)cn2)CC1 [Example 5-9, N-{[({trans-4-[(1R)-1-(6-{[4-(difluoromethyl)pyridin-2-yl]amino}-4-methyl-2,3′-bipyridin-6′-yl)-1-hydroxyethyl]cyclohexyl}carbonyl)oxy]methyl}-N,N-dipropylpropan-1-aminium] | 
3 | 1.4 nM |  |  |  | 138 µM | CC[N+](CC)(CC)COC(=O)[C@H]1CC[C@H]([C@@](C)(O)c2ccc(-c3cc(C)cc(Nc4cc(C(F)F)ccn4)n3)cn2)CC1 [Example 5-10, N-{[({trans-4-[(1R)-1-(6-{[4-(difluoromethyl)pyridin-2-yl]amino}-4-methyl-2,3′-bipyridin-6′-yl)-1-hydroxyethyl]cyclohexyl}carbonyl)oxy]methyl}-N,N-diethylethanaminium] | 
4 | 0.9 nM |  |  |  | 200 µM | Cc1cc(Nc2cc(C(F)F)ccn2)nc(-c2ccc([C@](C)(O)[C@H]3CC[C@H](C(=O)OC[N+](C)(C)C4CCCCC4)CC3)nc2)c1 [Example 5-11, N-{[({trans-4-[(1R)-1-(6-{[4-(difluoromethyl)pyridin-2-yl]amino}-4-methyl-2,3′-bipyridin-6′-yl)-1-hydroxyethyl]cyclohexyl}carbonyl)oxy]methyl}-N,N-dimethylcyclohexanaminium] | 
5 | 2.3 nM |  |  |  | 200 µM | CC[N+]1(COC(=O)[C@H]2CC[C@H]([C@@](C)(O)c3ccc(-c4cc(C)cc(Nc5cc(C(F)F)ccn5)n4)cn3)CC2)CCCCC1 [Example 5-14, 1-{[({trans-4-[(1R)-1-(6-{[4-(difluoromethyl)pyridin-2-yl]amino}-4-methyl-2,3′-bipyridin-6′-yl)-1-hydroxyethyl]cyclohexyl}carbonyl)oxy]methyl}-1-ethylpiperidinium] | 
6 | 0.8 nM |  |  |  | 86 µM | Cc1cc(Nc2cc(C(F)F)ccn2)nc(-c2ccc([C@](C)(O)[C@H]3CC[C@H](C(=O)OC[N+](C)(C)Cc4ccccc4)CC3)nc2)c1 [Example 5-20, N-benzyl[({trans-4-[(1R)-1-(6-{[4-(difluoromethyl)pyridin-2-yl]amino}-4-methyl-2,3′-bipyridin-6′-yl)-1-hydroxyethyl]cyclohexyl}carbonyl)oxy]-N,N-dimethylmethanaminium] | 
7 | 1.1 nM |  |  |  | 98 µM | Cc1cc(Nc2cc(C(F)F)ccn2)nc(-c2ccc([C@](C)(O)[C@H]3CC[C@H](C(=O)OC[N+](C)(C)CCOCCN(C)C)CC3)nc2)c1 [Example 5-23, N-{[({trans-4-[(1R)-1-(6-{[4-(difluoromethyl)pyridin-2-yl]amino}-4-methyl-2,3′-bipyridin-6′-yl)-1-hydroxyethyl]cyclohexyl}carbonyl)oxy]methyl}-2-[2-(dimethylamino)ethoxy]-N,N-dimethylethanaminium] | 
8 | 2 nM |  |  |  | 68 µM | Cc1cc(Nc2cc(C(F)F)ccn2)nc(-c2ccc([C@](C)(O)[C@H]3CC[C@H](C(=O)OC[N+]4(C)CCN(C)CC4)CC3)nc2)c1 [Example 5-26, 1-{[({trans-4-[(1R)-1-(6-{[4-(difluoromethyl)pyridin-2-yl]amino}-4-methyl-2,3′-bipyridin-6′-yl)-1-hydroxyethyl]cyclohexyl}carbonyl)oxy]methyl}-1,4-dimethylpiperazin-1-ium] | 
9 | 1.5 nM |  |  |  | 164 µM | Cc1cc(Nc2cc(C(F)F)ccn2)nc(-c2ccc([C@](C)(O)[C@H]3CC[C@H](C(=O)OC[N+]4(C)CCC(O)CC4)CC3)nc2)c1 (stereo partly drawn) [Example 5-27, 1-{[({trans-4-[(1R)-1-(6-{[4-(difluoromethyl)pyridin-2-yl]amino}-4-methyl-2,3′-bipyridin-6′-yl)-1-hydroxyethyl]cyclohexyl}carbonyl)oxy]methyl}-4-hydroxy-1-methylpiperidinium] | 
10 | < 0.5 nM |  |  |  | 176 µM | Cc1cc(Nc2cc(C(F)F)ccn2)nc(-c2ccc([C@](C)(O)[C@H]3CC[C@H](C(=O)OC[N+]4(C)CCC(CO)CC4)CC3)nc2)c1 (stereo partly drawn) [Example 5-29, 1-{[({trans-4-[(1R)-1-(6-{[4-(difluoromethyl)pyridin-2-yl]amino}-4-methyl-2,3′-bipyridin-6′-yl)-1-hydroxyethyl]cyclohexyl}carbonyl)oxy]methyl}-4-(hydroxymethyl)-1-methylpiperidinium] | 

Second part, the compound before the results:

Row | SMILES | IC50 [1, 4] | Conversion in FaSSIF + Pancreatin, time ([2]; FaSSIF + pancreatin, 24 h) | Conversion in FaSSIF, time ([2]; FaSSIF, 5 h) | Conversion in SGF, time ([2]; simulated gastric fluid, 5 h) | solubility [3] | IC50 ([1]; IC50, recombinant human GST-Syk 5 pM)
11 | CC[N+](CC)(CCCC(C)O)COC(=O)[C@H]1CC[C@H]([C@@](C)(O)c2ccc(-c3cc(C)cc(Nc4cc(C(F)F)ccn4)n3)cn2)CC1 (stereo partly drawn) [Example 5-7, N-{[({trans-4-[(1R)-1-(6-{[4-(difluoromethyl)pyridin-2-yl]amino}-4-methyl-2,3′-bipyridin-6′-yl)-1-hydroxyethyl]cyclohexyl}carbonyl)oxy]methyl}-N,N-diethyl-4-hydroxypentan-1-aminium] | 1.3 nM |  |  |  | 200 µM | 
12 | CCN(CC)C(=O)N1CC[N+](C)(COC(=O)[C@H]2CC[C@H]([C@@](C)(O)c3ccc(-c4cc(C)cc(Nc5cc(C(F)F)ccn5)n4)cn3)CC2)CC1 [Example 5-12, 4-(diethylcarbamoyl)-1-{[({trans-4-[(1R)-1-(6-{[4-(difluoromethyl)pyridin-2-yl]amino}-4-methyl-2,3′-bipyridin-6′-yl)-1-hydroxyethyl]cyclohexyl}carbonyl)oxy]methyl}-1-methylpiperazin-1-ium] | < 0.5 nM |  |  |  | 55 µM | 
13 | CC(=O)C1CC[N+](C)(COC(=O)[C@H]2CC[C@H]([C@@](C)(O)c3ccc(-c4cc(C)cc(Nc5cc(C(F)F)ccn5)n4)cn3)CC2)CC1 (stereo partly drawn) [Example 5-17, 4-acetyl-1-{[({trans-4-[(1R)-1-(6-{[4-(difluoromethyl)pyridin-2-yl]amino}-4-methyl-2,3′-bipyridin-6′-yl)-1-hydroxyethyl]cyclohexyl}carbonyl)oxy]methyl}-1-methylpiperidinium] | 1.6 nM |  |  |  | 45 µM | 
14 | Cc1cc(Nc2cc(C(F)F)ccn2)nc(-c2ccc([C@](C)(O)[C@H]3CC[C@H](C(=O)OC[N+](C)(C)CCOC(=O)c4ccccc4)CC3)nc2)c1 [Example 5-25, N-{[({trans-4-[(1R)-1-(6-{[4-(difluoromethyl)pyridin-2-yl]amino}-4-methyl-2,3′-bipyridin-6′-yl)-1-hydroxyethyl]cyclohexyl}carbonyl)oxy]methyl}-N,N-dimethyl-2-[(phenylcarbonyl)oxy]ethanaminium] | 0.7 nM |  |  |  | 155 µM | 
15 | Cc1cc(Nc2cc(C(F)F)ccn2)nc(-c2ccc([C@](C)(O)[C@H]3CC[C@H](C(=O)OCCC[S+](C)[O-])CC3)nc2)c1 (stereo partly drawn) [Example 7-4, 3-(methylsulfinyl)propyl trans-4-[(1R)-1-(6-{[4-(difluoromethyl)pyridin-2-yl]amino}-4-methyl-2,3′-bipyridin-6′-yl)-1-hydroxyethyl]cyclohexane carboxylate] | 4.3 nM |  |  |  | 141 µM (≈ 82.7 µg/mL) | 
16 | Cc1cc(Nc2cc(C(F)F)ccn2)nc(-c2ccc([C@](C)(O)[C@H]3CC[C@H](C(=O)O[C@H]4CC[C@H](N(C)C)CC4)CC3)nc2)c1 [Example 9-1, Trans-4-(Dimethylamino)cyclohexyl trans-4-[(1R)-1-(6-{[4-(difluoromethyl)pyridin-2-yl]amino}-4-methyl-2,3′-bipyridin-6′-yl)-1-hydroxyethyl]cyclohexanecarboxylate] | 3.2 nM |  |  |  | 162 µM (≈ 98.5 µg/mL) | 
17 | Cc1cc(Nc2cc(C(F)F)ccn2)nc(-c2ccc([C@](C)(O)[C@H]3CC[C@H](C(=O)O)CC3)nc2)c1 [PrepEx 1-5, trans-4-[(1R)-(6-{[4-(Difluoromethyl)pyridin-2-yl]amino}-4-methyl-2,3′-bipyridin-6′-yl)-1-hydroxyethyl]cyclohexanecarboxylic acid] |  |  |  |  | < 3 µM | < 0.5 nM
